According to patent US10286004B2, “Targeting-enhanced anticancer nanoparticles and preparation methods of same” (JINIS CO., LTD., priority 2013, dated 2019):

Experiments:
[1] = system: human breast xenograft tumors (MDA-MB-231); assay: Tumor targeting efficacy: drug distribution between tumor and healthy tissues in xenograft mice (LC/MS); assay type: in vivo; details: 10 mg/kg/day i.v., organs collected 16 hours after administration; for healthy % ID/g: healthy tissues
Procedure: (§1) To evaluate the tumor-targeting characteristics of the targeting-enhanced nanoparticles formulated in the Examples 1 and 2, the nanoparticles were injected into mice containing human breast xenograft tumors, and the distribution of radioactivity between tumor tissues and healthy tissues was analyzed.
(§2) When the tumors reached a size of ˜100 mm^3, mice were treated intravenously with either saline control or nanoparticle preparations prepared in Examples 1 and 2, at a dose of 10 mg/kg/day. Organs from each mouse were collected at 16 hours after nanoparticle administration and ground completely with the Beadbeater. The analyte drugs were extracted from the ground tissues with acetonitrile, and the drug concentrations in each tissue were analyzed by LC/MS. The drug concentrations delivered to each tissue relative to the Injected Dose (ID) were measured in both healthy and tumor tissues, as shown in Table 3.
(§3) Targeting-enhanced nanoparticles containing paclitaxel were administered intravenously to mice with tumor xenografts, and at 4 hours after injection, the mice were exposed to a light-emitting diode, LED, at the wavelength of 630 nm at an intensity of […] for 30 minutes.

[2] = as above; assay type: in vivo; details: female, athymic nude, mouse, iv; tumor tissue; 10 mg/kg/day i.v.; organs collected 16 hours after administration
Procedure: as §1, §2, §3

[3] = system: large-sized tumor xenografts representing late-stage cancer; assay: Efficacy of doxorubicin nanoparticles in late-stage cancer xenograft; assay type: in vivo, mice; details: without LED stated
Procedure: The lung cancer cell line NCI-H460-luc2 (Caliper Life Sciences) was prepared in suspension at 5×10^6 cells.
Tumor growth was monitored using bioluminescence imaging of luciferase-expressing cancer cell lines. Mice were injected intraperitoneally with D-luciferin at a dosage of 150 mg luciferin/kg body weight. Mice were then anesthetized under isoflurane gas supplemented with oxygen and placed under a camera equipped with a Xenogen IVIS 200 imager to generate a bioluminescent image using an IVIS imaging system (Xenogen). Bioluminescence color images were superimposed using Living Image software.

healthy mice = assay: Toxicity (LD50) in healthy mice; assay type: in vivo; details: monitored 14 days, based on mortality
Procedure: After establishment of the tumor-xenograft model, either healthy mice or tumor-xenografted mice were divided into three groups (n=6) receiving saline solution (control group), free paclitaxel at the indicated dose, or targeting-enhanced nanoparticles in saline solution at the indicated dose of paclitaxel. […] To evaluate their toxicity, targeting-enhanced nanoparticles were administered to healthy mice and tumor-xenograft mice at 10 different dosages of paclitaxel: 20, 40, 60, 80, 100, 120, 250, 300, 350, and 400 mg/kg/day. Body weights and physical changes were monitored over 14 days, and the LD50s were calculated based on mortality.

COc1cccc2c1C(=O)c1c(O)c3c(c(O)c1C2=O)C[C@@](O)(C(=O)CO)C[C@@H]3O[C@H]1C[C@H](N)[C@H](O)[C@H](C)O1 [Free drug doxorubicin, doxorubicin]
healthy % ID/g [1]: 0.4~3.4 % ID/g
tissue uptake at 16 h [2]: 1.5 %ID/g
tumor growth day 0 to day 28 (FIG. 10) [3]: clear tumor growth

Nc1ccn([C@@H]2O[C@H](CO)[C@@H](O)C2(F)F)c(=O)n1 [Free drug gemcitabine, gemcitabine]
healthy % ID/g [1]: 0.2~4.2 % ID/g
tissue uptake at 16 h [2]: 2.4 %ID/g

O=C1[O][Pt]2([NH][C@@H]3CCCC[C@H]3[NH]2)[O]C1=O [Free drug oxaliplatin, oxaliplatin]
healthy % ID/g [1]: 0.1~3.5 % ID/g
tumor % ID/g ([1]; tumor tissue): 2.5 % ID/g

CC(=O)O[C@H]1C(=O)[C@@]2(C)[C@H]([C@H](OC(=O)c3ccccc3)[C@]3(O)C[C@H](OC(=O)[C@H](O)[C@@H](NC(=O)c4ccccc4)c4ccccc4)C(C)=C1C3(C)C)[C@]1(OC(C)=O)CO[C@@H]1C[C@@H]2O [Free drug paclitaxel, paclitaxel]
tissue uptake at 16 h [2]: 0.52 %ID/g
LD50 (healthy mice): 30 mg/kg/day
